This assay has as its system Melanoderm cultures. The assay can be described thus: Solvable melanin assay on Melanoderm cultures (3-D skin model). The class given is cell-based. The following applies: for OD = 490 nm (melanin content, Solvable melanin assay): Melanoderm cultures fed every other day for 2 weeks, DMSO control 1.292, untreated 1.259. How it is done: This experiment was carried out using Melanoderm cultures. Luminescence was measured using a chromameter to assay the degree of melanization of a 3-D skin model.
Method for Melanoderm Cultures
Melanoderm cultures were obtained from MatTek Corporation, Ashland, Mass. The Melanoderm was maintained according to the manufacturer's instructions. The basal media used for the maintenance of the Melanoderm cultures was DMEM supplemented with unspecified quantities of Epidermal growth factor, Insulin, Hydrocortisone, and proprietary epidermal differentiation compounds, in addition to anti-fungal and antibiotics.
For the long term maintenance of the Melanoderms, the basal media was supplemented with both bFGF and a-MSH, compounds which are stimulators of melanocyte growth and melanogenesis. The cultures were fed every other day for a total of 2 weeks—fresh active preparations, prepared in DMSO or culture media, were also applied to the Melanoderms when feeding was performed. Each treatment condition was done in duplicate and digital photographs were taken of the Melanoderm cultures to assess overall pigmentation. As well, microscopic images of the Melanoderms were done to assess the cell viability of the keratinocytes and melanocytes. For further evidence that the treatments were/not cytotoxic, an LDH assay (Promega, Madison, Wis.) was performed on the supernatants from 24 hour post-treatment cultures.
To prepare tissues for assay:
After treatment, tissues are usually frozen until completion of the experiment. Thaw tissues, a few at a time and place in D-PBS to remove excess phenol red from the culture medium and residual test article. Remove a single tissue from the insert. Blot dry and place in 1.7 ml. microfuge tube. Repeat for all samples. Add 250 ul Solvable™ (Tissue and Gel Solubilizer 0.5 M—Packard BioScience Co. Catalogue No. 6NE9100 (NEF910)). Close the tube and make sure that the tissue is completely submerged. Incubate at 60° C. overnight along with standards. In the morning, vortex the samples. Sometimes thick tissues will require additional time to complete the solution process. To prepare standard: Dissolve Melanin (Sigma cat. M 8631) in Solvable at 1 mg/ml. The solution may be warmed gently for 15 minutes at 37° C. Store solution in dark. To prepare standard curve: Prepare dilutions from the standard containing 0 ug to 250 ug of melanin in a total of 250 ul Solvable. Incubate dilutions along with samples. To read assay: Cool samples and standards. Centrifuge at 13,000 rpm for 5 minutes to pellet. Fill microwell plate (C-96) with 200 ul each of samples and standards. There is some foaming of samples when pipetted. Blow gently across the samples to break bubbles prior to reading the plate. Read plate at […].

Take `CCC(=O)n1c(=O)sc2ccccc21` [3-propionylbenzothiazol-2-one]: the “OD = 490 nm (melanin content, Solvable melanin assay)” value runs as follows: (125 uM) 1.522; (250 uM) 1.509; (375 uM) 1.377; (500 uM) 0.889; (750 uM) 0.727; (1000 uM) 0.184. Also, the “effect on melanin synthesis” value (conclusion from Table 5, Melanoderm cultures) was “reduce melanin synthesis”.

(Values after patent US7270805B1, “Skin lightening agents, compositions and methods” (Conopco, Inc., priority 2006, dated 2007).)
